Each structure is given as a SMILES string.

For this experiment, the system named is T1, PeLac (Pleurotus eryngii laccase).
T1 construct: gene ery3
Conditions: free enzyme, partially purified; ABTS 0.01-2.0 mM; 25 °C; co-substrate O2.

Take `CCn1c(=NN=c2sc3cc(S(=O)(=O)O)ccc3n2CC)sc2cc(S(=O)(=O)O)ccc21` [ABTS]: the Km (as a rule, the concentration of substrate that gives half-maximal velocity) stood at 118 ± 8.9 µM.

Source of the values: PMC12286210, “Immobilization of Pleurotus eryngii Laccase via a Protein–Inorganic Hybrid for Efficient Degradation of Bisphenol A as a Potent Xenobiotic” (Journal of Xenobiotics, 2025).
